Results taken from patent US6914045B2, “Glycopeptide antibiotics” (Wyeth Holdings Corporation, priority 2001, dated 2005).
Values after ≈ are worked out from the molar mass of the structure shown.

Key:
Experiment in all cases: in vitro antibacterial evaluation, MIC by broth dilution
Assay type in all cases: cell-based
[1] = test system: Staphylococcus sp.; settings: broth dilution, 18 hours at 35° C.
In short: (§1)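 Following National Committee for Clinical Laboratory Standards recommendations (M7-A2), susceptibility was measured by dilution in Muller-Hinton II […]. Bacteria were seeded at 5×10^5 CFU/mL against compound concentrations from 64 down to 0.06 μg/mL.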

[2] = test system: Streptococcus sp.; settings: broth dilution, 18 hours at 35° C.
In short: as §1

[3] = test system: Enterococcus sp.; settings: broth dilution, 18 hours at 35° C.
In short: as §1

[4] = test system: Escherichia coli; settings: 18 hours at 35° C.
In short: as §1

MIC Staphylococcus aureus (ATCC 29213) [1]: 8 µg/mL (≈ 5.59 µM) | MIC Staphylococcus aureus (GC 1131) [1]: 8 µg/mL (≈ 5.59 µM) | MIC Staphylococcus aureus (GC 3051) [1]: 8 µg/mL (≈ 5.59 µM) | MIC Staphylococcus aureus (GC 3053) [1]: 8 µg/mL (≈ 5.59 µM) | MIC Staphylococcus aureus (GC 4541) [1]: 8 µg/mL (≈ 5.59 µM) | MIC Staphylococcus aureus (GC 4542) [1]: 8 µg/mL (≈ 5.59 µM) | MIC Staphylococcus aureus (GC 4544) [1]: 8 µg/mL (≈ 5.59 µM) | MIC Staphylococcus aureus (GC 4545) [1]: 8 µg/mL (≈ 5.59 µM) | MIC Staphylococcus aureus (GC 1131) ([1]; inoculum 5×10^5 CFU/mL, strain GC 1131): 8 µg/mL (≈ 5.59 µM) | MIC Staphylococcus aureus (ATCC 29213) ([1]; strain ATCC 29213): 8 µg/mL (≈ 5.59 µM) | MIC Staphylococcus aureus (GC 3051) ([1]; strain GC 3051): 8 µg/mL (≈ 5.59 µM) | MIC Staphylococcus aureus (GC 3053) ([1]; strain GC 3053): 8 µg/mL (≈ 5.59 µM) | MIC Staphylococcus aureus (GC 4541) ([1]; strain GC 4541): 8 µg/mL (≈ 5.59 µM) | MIC Staphylococcus aureus (GC 4542) ([1]; strain GC 4542): 8 µg/mL (≈ 5.59 µM) | MIC Staphylococcus aureus-SMITH (GC 4543) ([1]; strain GC 4543): 8 µg/mL (≈ 5.59 µM) | MIC Staphylococcus aureus (GC 4544) ([1]; strain GC 4544): 8 µg/mL (≈ 5.59 µM) | MIC Staphylococcus aureus (GC 4545) ([1]; strain GC 4545): 8 µg/mL (≈ 5.59 µM) | MIC Coagulase Negative Staphylococcus (GC 4547) ([1]; strain GC 4547): 8 µg/mL (≈ 5.59 µM) | MIC Coagulase Negative Staphylococcus (GC 4548) ([1]; strain GC 4548): 8 µg/mL (≈ 5.59 µM) | MIC Coagulase Negative Staphylococcus (GC 4549) ([1]; strain GC 4549): 8 µg/mL (≈ 5.59 µM) | MIC Coagulase Negative Staphylococcus (GC 4551) ([1]; strain GC 4551): 8 µg/mL (≈ 5.59 µM) | MIC Coagulase Negative Staphylococcus (GC 6257) ([1]; strain GC 6257): 8 µg/mL (≈ 5.59 µM) | MIC Staphylococcus aureus-SMITH (GC 4543) ([1]; strain SMITH GC 4543): 8 µg/mL (≈ 5.59 µM) | MIC Streptococcus agalactiae (GC 4564) ([2]; Streptococcus agalactiae (GC 4564)): 1 µg/mL (≈ 0.699 µM) | MIC Streptococcus pneumoniae (ATCC 6301) ([2]; Streptococcus pneumoniae (ATCC 6301)): <0.06 µg/mL | MIC Streptococcus pneumoniae (GC 1894) ([2]; Streptococcus pneumoniae (GC 1894)): <0.06 µg/mL | MIC Streptococcus pneumoniae (GC 4565) ([2]; Streptococcus pneumoniae (GC 4565)): <0.06 µg/mL | MIC Streptococcus pyogenes (GC 4563) ([2]; Streptococcus pyogenes (GC 4563)): 0.12 µg/mL (≈ 0.0838 µM) | MIC Streptococcus pneumoniae (ATCC 6301) ([2]; strain ATCC 6301): <0.06 µg/mL | MIC Streptococcus pneumoniae (GC 1894) ([2]; strain GC 1894): <0.06 µg/mL | MIC Streptococcus pyogenes (GC 4563) ([2]; strain GC 4563): 0.12 µg/mL (≈ 0.0838 µM) | MIC Streptococcus agalactiae (GC 4564) ([2]; strain GC 4564): 1 µg/mL (≈ 0.699 µM) | MIC Streptococcus pneumoniae (GC 4565) ([2]; strain GC 4565): <0.06 µg/mL | MIC Enterococcus avium (GC 4558) ([3]; Enterococcus avium (GC 4558)): 8 µg/mL (≈ 5.59 µM) | MIC Enterococcus faecalis (ATCC 29212) ([3]; Enterococcus faecalis (ATCC 29212)): 8 µg/mL (≈ 5.59 µM) | MIC Enterococcus faecalis (GC 2242) ([3]; Enterococcus faecalis (GC 2242)): 8 µg/mL (≈ 5.59 µM) | MIC Enterococcus faecalis (GC 2691) ([3]; Enterococcus faecalis (GC 2691)): 8 µg/mL (≈ 5.59 µM) | MIC Enterococcus faecalis (GC 3059) ([3]; Enterococcus faecalis (GC 3059)): 8 µg/mL (≈ 5.59 µM) | MIC Enterococcus faecalis (GC 4552) ([3]; Enterococcus faecalis (GC 4552)): 8 µg/mL (≈ 5.59 µM) | MIC Enterococcus faecalis (GC 4553) ([3]; Enterococcus faecalis (GC 4553)): 8 µg/mL (≈ 5.59 µM) | MIC Enterococcus faecalis (GC 4554) ([3]; Enterococcus faecalis (GC 4554)): 8 µg/mL (≈ 5.59 µM) | MIC Enterococcus faecalis (GC 6189) ([3]; Enterococcus faecalis (GC 6189)): 8 µg/mL (≈ 5.59 µM) | MIC Enterococcus faecium (GC 2243) ([3]; Enterococcus faecium (GC 2243)): 8 µg/mL (≈ 5.59 µM) | MIC Enterococcus faecium (GC 4556) ([3]; Enterococcus faecium (GC 4556)): 8 µg/mL (≈ 5.59 µM) | MIC Enterococcus faecium (GC 4557) ([3]; Enterococcus faecium (GC 4557)): 8 µg/mL (≈ 5.59 µM) | MIC Enterococcus faecalis (ATCC 29212) ([3]; strain ATCC 29212): 8 µg/mL (≈ 5.59 µM) | MIC Enterococcus faecalis (GC 2242) ([3]; strain GC 2242): 8 µg/mL (≈ 5.59 µM) | MIC Enterococcus faecium (GC 2243) ([3]; strain GC 2243): 8 µg/mL (≈ 5.59 µM) | MIC Enterococcus faecalis (GC 2691) ([3]; strain GC 2691): 8 µg/mL (≈ 5.59 µM) | MIC Enterococcus faecalis (GC 3059) ([3]; strain GC 3059): 8 µg/mL (≈ 5.59 µM) | MIC Enterococcus faecalis (GC 4552) ([3]; strain GC 4552): 8 µg/mL (≈ 5.59 µM) | MIC Enterococcus faecalis (GC 4553) ([3]; strain GC 4553): 8 µg/mL (≈ 5.59 µM) | MIC Enterococcus faecalis (GC 4554) ([3]; strain GC 4554): 8 µg/mL (≈ 5.59 µM) | MIC Enterococcus faecium (GC 4556) ([3]; strain GC 4556): 8 µg/mL (≈ 5.59 µM) | MIC Enterococcus faecium (GC 4557) ([3]; strain GC 4557): 8 µg/mL (≈ 5.59 µM) | MIC Enterococcus avium (GC 4558) ([3]; strain GC 4558): 8 µg/mL (≈ 5.59 µM) | MIC Enterococcus faecalis (GC 6189) ([3]; strain GC 6189): 8 µg/mL (≈ 5.59 µM) | MIC Escherichia coli (ATCC 25922) ([4]; strain ATCC 25922): 64 µg/mL (≈ 44.7 µM) | MIC Escherichia coli (GC 4559) ([4]; strain GC 4559): 64 µg/mL (≈ 44.7 µM) | MIC Escherichia coli (GC 4560) ([4]; strain GC 4560): 8 µg/mL (≈ 5.59 µM)
Structure (SMILES): CC(C)=CCCC(C)CC1OCC2OC(OC3C(CO)OC(Oc4ccc(CC5NC(=O)C(C(C)c6ccccc6)NC(=O)CNC(=O)C(CO)NC(=O)C(C(O)C6CNC(=N)N6C6OC(CO)C(O)C(O)C6O)NC(=O)C(C(O)C6CNC(=N)N6)NC5=O)cc4)C(O)C3O)C(O)C(O)C2O1 (stereo not shown) [Example 126]
MIC Staphylococcus haemolyticus (GC 4546) ([1]; strain GC 4546): 8 µg/mL (≈ 5.59 µM)
